Test results taken from patent US8741836B2, “Polypeptides” (Novo Nordisk A/S, priority 2011, dated 2014).
Starred links: 1 amine or outer side, 2 acyl side, 3 side chain; linkers in the order of their positions; H or OH if unused. Positions of bridges follow the written chain, without caps; N, C: chain ends. Residues, ends and D or L forms follow the SMILES beside them. Groups on a side chain read outwards from the residue. *: point of attachment. C20 diacid = O=C(O)CCCCCCCCCCCCCCCCCCC(=O)*; C18 diacid = O=C(O)CCCCCCCCCCCCCCCCC(=O)*; γGlu = O=C(O)[C@H](CCC(=O)[*:2])N[*:1]; AEEA = NCCOCCOCC(=O)O

Experiment: Assay (III) ThT fibrillation assay for physical stability
Format: physicochemical
Settings: for ThT pH 4.0 lag time: pH 4.0, ThT fibrillation assay
Method in brief: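 Freshly prepared, pH-adjusted formulations with 1 μM ThT incubated at 37 °C under 960 rpm orbital shaking (1 mm), fluorescence (ex 444, em 485 nm) read every 20 min. […] Peptide content before and after measured by reverse-phase HPLC against pramlintide standard.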

| ThT pH 4.0 lag time (physical stability in fibrillogenesis assay) | ThT pH 4.0 lag time | Structure (SMILES) |
| --- | --- | --- |
| >45 h | – | CC[C@H](C)[C@H](NC(=O)[C@@H]1CCCN1C(=O)CNC(=O)[C@H](Cc1ccccc1)NC(=O)[C@H](CC(N)=O)NC(=O)[C@H](CC(N)=O)NC(=O)[C@H](CO)NC(=O)[C@H](CO)NC(=O)[C@H](Cc1c[nH]cn1)NC(=O)[C@H](CCCNC(=N)N)NC(=O)[C@H](CC(C)C)NC(=O)[C@H](Cc1ccccc1)NC(=O)[C@H](CCC(=O)O)NC(=O)[C@H](C)NC(=O)[C@H](CC(C)C)NC(=O)[C@H](CCCNC(=N)N)NC(=O)[C@H](CCC(N)=O)NC(=O)[C@@H](NC(=O)[C@H](C)NC(=O)[C@@H]1CSSC[C@H](NC(=O)[C@H](CCCCN)NC(=O)CC[C@H](NC(=O)CCCCCCCCCCCCCCCCCCC(=O)O)C(=O)O)C(=O)N[C@@H](CC(N)=O)C(=O)N[C@@H]([C@@H](C)O)C(=O)N[C@@H](C)C(=O)N[C@@H]([C@@H](C)O)C(=O)N1)[C@@H](C)O)C(=O)N[C@@H](CC(C)C)C(=O)N1CCC[C@H]1C(=O)N1CCC[C@H]1C(=O)N[C@H](C(=O)N[C@@H](CC(N)=O)C(=O)N[C@H](C(=O)NCC(=O)N[C@@H](CO)C(=O)N[C@@H](Cc1cnc[nH]1)C(=O)N[C@H](C(=O)N[C@@H](Cc1ccc(O)cc1)C(N)=O)[C@@H](C)O)C(C)C)[C@@H](C)O [Example 57, N-alpha-[(S)-4-Carboxy-4-(19-carboxynonadecanoylamino)butyryl]-[Glu14,Arg17,His35]-pramlintide] ({C20 diacid-γGlu}-KCNTATCATQRLAEFLRHSSNNFGPILPPTNVGSHTY-NH2; disulfide 2-7) |
| >45 h | >45 h | CC[C@H](C)[C@H](NC(=O)[C@@H]1CCCN1C(=O)CNC(=O)[C@H](Cc1ccccc1)NC(=O)[C@H](CC(N)=O)NC(=O)[C@H](CC(N)=O)NC(=O)[C@H](CO)NC(=O)[C@H](CO)NC(=O)[C@H](Cc1c[nH]cn1)NC(=O)[C@H](Cc1c[nH]cn1)NC(=O)[C@H](CC(C)C)NC(=O)[C@H](Cc1ccccc1)NC(=O)[C@H](CCC(=O)O)NC(=O)[C@H](C)NC(=O)[C@H](CC(C)C)NC(=O)[C@H](CCCNC(=N)N)NC(=O)[C@H](CCC(N)=O)NC(=O)[C@@H](NC(=O)[C@H](C)NC(=O)[C@@H]1CSSC[C@H](NC(=O)[C@H](CCCCN)NC(=O)CC[C@H](NC(=O)CCCCCCCCCCCCCCCCCCC(=O)O)C(=O)O)C(=O)N[C@@H](CC(N)=O)C(=O)N[C@@H]([C@@H](C)O)C(=O)N[C@@H](C)C(=O)N[C@@H]([C@@H](C)O)C(=O)N1)[C@@H](C)O)C(=O)N[C@@H](CC(C)C)C(=O)N1CCC[C@H]1C(=O)N1CCC[C@H]1C(=O)N[C@H](C(=O)N[C@@H](CC(N)=O)C(=O)N[C@H](C(=O)NCC(=O)N[C@@H](CO)C(=O)N[C@@H](CCCCN)C(=O)N[C@H](C(=O)N[C@@H](Cc1ccc(O)cc1)C(N)=O)[C@@H](C)O)C(C)C)[C@@H](C)O [Example 113, N-alpha-[(S)-4-Carboxy-4-(19-carboxynonadecanoylamino)butyryl]-[Glu14,His17,Lys35]-pramlintide] ({C20 diacid-γGlu}-KCNTATCATQRLAEFLHHSSNNFGPILPPTNVGSKTY-NH2; disulfide 2-7 (inferred)) |
| – | 29 h | CC[C@H](C)[C@H](NC(=O)[C@@H]1CCCN1C(=O)CNC(=O)[C@H](Cc1ccccc1)NC(=O)[C@H](CC(N)=O)NC(=O)[C@H](CC(N)=O)NC(=O)[C@H](CO)NC(=O)[C@H](CO)NC(=O)[C@H](Cc1c[nH]cn1)NC(=O)[C@H](Cc1c[nH]cn1)NC(=O)[C@H](CC(C)C)NC(=O)[C@H](Cc1ccccc1)NC(=O)[C@H](CCC(=O)O)NC(=O)[C@H](C)NC(=O)[C@H](CC(C)C)NC(=O)[C@H](CCCNC(=N)N)NC(=O)[C@H](CCC(N)=O)NC(=O)[C@@H](NC(=O)[C@H](C)NC(=O)[C@@H]1CSSC[C@H](NC(=O)CNC(=O)CC[C@H](NC(=O)CCCCCCCCCCCCCCCCCCC(=O)O)C(=O)O)C(=O)N[C@@H](CC(N)=O)C(=O)N[C@@H]([C@@H](C)O)C(=O)N[C@@H](C)C(=O)N[C@@H]([C@@H](C)O)C(=O)N1)[C@@H](C)O)C(=O)N[C@@H](CC(C)C)C(=O)N1CCC[C@H]1C(=O)N1CCC[C@H]1C(=O)N[C@H](C(=O)N[C@@H](CC(N)=O)C(=O)N[C@H](C(=O)NCC(=O)N[C@@H](CO)C(=O)N[C@@H](CC(N)=O)C(=O)N[C@H](C(=O)N1CCC[C@H]1C(N)=O)[C@@H](C)O)C(C)C)[C@@H](C)O [Example 91, N-alpha-[(S)-4-Carboxy-4-(19-carboxynonadecanoylamino)butyryl]-[Gly1,Glu14,His17,Pro37]-pramlintide] ({C20 diacid-γGlu}-GCNTATCATQRLAEFLHHSSNNFGPILPPTNVGSNTP-NH2; disulfide 2-7 (inferred)) |
| – | >45 h | CC[C@H](C)[C@H](NC(=O)[C@@H]1CCCN1C(=O)CNC(=O)[C@H](Cc1ccccc1)NC(=O)[C@H](CC(N)=O)NC(=O)[C@H](CC(=O)O)NC(=O)[C@H](CO)NC(=O)[C@H](CO)NC(=O)[C@H](Cc1c[nH]cn1)NC(=O)[C@H](Cc1c[nH]cn1)NC(=O)[C@H](CC(C)C)NC(=O)[C@H](Cc1ccccc1)NC(=O)[C@H](CCC(=O)O)NC(=O)[C@H](C)NC(=O)[C@H](CC(C)C)NC(=O)[C@H](CCCNC(=N)N)NC(=O)[C@H](CCC(N)=O)NC(=O)[C@@H](NC(=O)[C@H](C)NC(=O)[C@@H]1CSSC[C@H](NC(=O)[C@H](CCCCN)NC(=O)CC[C@H](NC(=O)CCCCCCCCCCCCCCCCCCC(=O)O)C(=O)O)C(=O)N[C@@H](CC(N)=O)C(=O)N[C@@H]([C@@H](C)O)C(=O)N[C@@H](C)C(=O)N[C@@H]([C@@H](C)O)C(=O)N1)[C@@H](C)O)C(=O)N[C@@H](CC(C)C)C(=O)N1CCC[C@H]1C(=O)N1CCC[C@H]1C(=O)N[C@H](C(=O)N[C@@H](CC(N)=O)C(=O)N[C@H](C(=O)NCC(=O)N[C@@H](CO)C(=O)N[C@@H](Cc1c[nH]cn1)C(=O)N[C@H](C(=O)N[C@@H](Cc1ccc(O)cc1)C(N)=O)[C@@H](C)O)C(C)C)[C@@H](C)O [Example 128, N-alpha-[(S)-4-Carboxy-4-(19-carboxynonadecanoylamino)butyryl]-[Glu14,His17,Asp21,His35]-pramlintide] ({C20 diacid-γGlu}-KCNTATCATQRLAEFLHHSSDNFGPILPPTNVGSHTY-NH2; disulfide 2-7) |
| – | >45 h | CC[C@H](C)[C@H](NC(=O)[C@@H]1CCCN1C(=O)CNC(=O)[C@H](Cc1ccccc1)NC(=O)[C@H](CC(N)=O)NC(=O)[C@H](CC(N)=O)NC(=O)[C@H](CO)NC(=O)[C@H](CO)NC(=O)[C@H](Cc1c[nH]cn1)NC(=O)[C@H](Cc1c[nH]cn1)NC(=O)[C@H](CC(C)C)NC(=O)[C@H](Cc1ccccc1)NC(=O)[C@H](CCC(=O)O)NC(=O)[C@H](C)NC(=O)[C@H](CC(C)C)NC(=O)[C@H](CCCNC(=N)N)NC(=O)[C@H](CCC(N)=O)NC(=O)[C@@H](NC(=O)[C@H](C)NC(=O)[C@@H]1CSSC[C@H](NC(=O)[C@H](CCCCN)NC(=O)CC[C@H](NC(=O)CCCCCCCCCCCCCCCCCCC(=O)O)C(=O)O)C(=O)N[C@@H](CC(N)=O)C(=O)N[C@@H]([C@@H](C)O)C(=O)N[C@@H](C)C(=O)N[C@@H]([C@@H](C)O)C(=O)N1)[C@@H](C)O)C(=O)N[C@@H](CC(C)C)C(=O)N1CCC[C@H]1C(=O)N1CCC[C@H]1C(=O)N[C@H](C(=O)N[C@@H](CC(N)=O)C(=O)N[C@@H](Cc1c[nH]cn1)C(=O)NCC(=O)N[C@@H](CO)C(=O)N[C@@H](CC(N)=O)C(=O)N[C@H](C(=O)N[C@@H](Cc1ccc(O)cc1)C(N)=O)[C@@H](C)O)[C@@H](C)O [Example 116, N-alpha-[(S)-4-Carboxy-4-(19-carboxynonadecanoylamino)butyryl]-[Glu14,His17,His32]-pramlintide] ({C20 diacid-γGlu}-KCNTATCATQRLAEFLHHSSNNFGPILPPTNHGSNTY-NH2; disulfide 2-7) |
| >45 h | >45 h | CC[C@H](C)[C@H](NC(=O)[C@@H]1CCCN1C(=O)CNC(=O)[C@H](Cc1ccccc1)NC(=O)[C@H](CC(N)=O)NC(=O)[C@H](CO)NC(=O)[C@H](CO)NC(=O)[C@H](CO)NC(=O)[C@H](Cc1c[nH]cn1)NC(=O)[C@H](CCCCNC(=O)COCCOCCNC(=O)COCCOCCNC(=O)CC[C@H](NC(=O)CCCCCCCCCCCCCCCCC(=O)O)C(=O)O)NC(=O)[C@H](CC(C)C)NC(=O)[C@H](Cc1ccccc1)NC(=O)[C@H](CCC(=O)O)NC(=O)[C@H](C)NC(=O)[C@H](CC(C)C)NC(=O)[C@H](CCCNC(=N)N)NC(=O)[C@H](CCC(N)=O)NC(=O)[C@@H](NC(=O)[C@H](C)NC(=O)[C@@H]1CSSC[C@H](NC(=O)[C@@H](N)CCCCN)C(=O)N[C@@H](CC(N)=O)C(=O)N[C@@H]([C@@H](C)O)C(=O)N[C@@H](C)C(=O)N[C@@H]([C@@H](C)O)C(=O)N1)[C@@H](C)O)C(=O)N[C@@H](CC(C)C)C(=O)N1CCC[C@H]1C(=O)N1CCC[C@H]1C(=O)N[C@H](C(=O)N[C@@H](CC(N)=O)C(=O)N[C@H](C(=O)NCC(=O)N[C@@H](CO)C(=O)N[C@@H](CCC(=O)O)C(=O)N[C@H](C(=O)N[C@@H](Cc1ccc(O)cc1)C(N)=O)[C@@H](C)O)C(C)C)[C@@H](C)O [Example 83, N-epsilon17-[2-(2-{2-[2-(2-{2-[(S)-4-Carboxy-4-(17-carboxyheptadecanoylamino)butyrylamino]ethoxy}ethoxy)acetylamino]ethoxy}ethoxy)acetyl]-[Glu14,Lys17,Ser21,Glu35]-pramlintide] (H-KCNTATCATQRLAEFLK([AEEA-AEEA-γGlu-C18 diacid])HSSSNFGPILPPTNVGSETY-NH2; disulfide 2-7 (inferred); N-terminus assumed) |
